According to the METLIN SMRT retention time set (Domingo-Almenara et al. 2019):

Test: gradient 5% acetonitrile 3 min, to 50% in 2 min, to 85% in 15 min, held 3 min, 100 µL/min
Conditions: column: Zorbax Extend-C18 2.1 x 50 mm; eluents: water / acetonitrile, 0.1% formic acid
Outline: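 Each retention time is based on an adduct peak selected computationally and verified by manual inspection. Measurements used HPLC–quadrupole time-of-flight mass spectrometry in positive and negative ionization mode on mixtures of ~100 pure standards. Chromatography ran on a Zorbax Extend-C18 column (2.1 × 50 mm, 1.8 μm) at 100 μL/min with water and acetonitrile, each containing 0.1% formic acid, and dead and dwell volumes of 40 μL and 900 μL.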

SMILES	RP-LC retention time [s]
COCc1cc(=O)n(Cc2ccccc2C#N)c(N2CCCC2)n1	744
COc1ccc(CN2C[C@@H](CO)[C@H](c3ccncc3)C2)cc1OC	592
CCn1nccc1C(=O)N1CCCN(C2=NS(=O)(=O)C(c3ccc(C)cc3)=C2C)CC1	769
O=C(NCCc1csc(C2CCN(C(=O)C3CCCCC3)CC2)n1)C1CCC1	720
COc1ccc(-n2nc(C)c3sc(N4CCCC(C(=O)NC5CCCCC5)C4)nc32)cc1 (stereo unspecified)	1110
CN(CCc1noc(COc2ccc(Cl)cc2Cl)n1)C(=O)c1ccco1	898
c1ccc(Nc2c(-c3ccc(N4CCOCC4)cc3)nc3ccccn23)cc1	670
CCOC(=O)C1=C(C)NC2=C(C(=O)C(C(=O)OC)C(C)C2)C1c1cccc(F)c1 (stereo unspecified)	908
CC(CCc1ccccc1)NC(=O)CCC(=O)N1CCc2c(c(C(=O)N3CCOCC3)nn2C)C1 (stereo unspecified)	679
COc1ccc(N2CCN(C(=O)C3CCc4nc(N5CCCC5)ncc4C3)CC2)cc1 (stereo unspecified)	626
CCN1CCN(c2cc(C)c3cc(NC(=O)c4ccco4)ccc3n2)CC1	560
O=S(=O)(c1cccnc1)N1CCCC(Cn2c(C3CC3)nc3cccnc32)C1 (stereo unspecified)	650
Cc1nnc(C2CCCN(C(=O)c3ccc4nsnc4c3)C2)s1 (stereo unspecified)	651
O=C(CN1C(=O)C2CCCCN2c2ccc(S(=O)(=O)N3CCCC3)cc21)NCC1CCCO1 (stereo unspecified)	771
COc1ccc(C2Cn3nnc(-c4nc(-c5ccc(Br)cc5)no4)c3CO2)cc1 (stereo unspecified)	1260
CC1=C(c2ccc(F)cc2)S(=O)(=O)N=C1N1CCCN(C(=O)c2ccccc2C)CC1	831
Cc1cc(Cl)ccc1NC(=O)c1cc2n(n1)CCCC2	975
CC(C)NC(=O)c1ccc2c(c1)CCCN2S(C)(=O)=O	717

SMILES	RP-LC retention time [s]
CCC(=O)N1CCc2sc(S(=O)(=O)N3CCN(c4ccc(C)cc4)CC3)cc2C1	1000
COc1ccc(NC(=O)c2cc(C(C)C)n3nccc3n2)cc1Cl	1130
CN1C(=O)c2cccnc2Sc2cc(NC(=O)c3ccsc3)ccc21	725
CC1CCN(c2ncc3c(n2)CCC(C(=O)NC(C)c2ccccn2)C3)CC1 (stereo unspecified)	614
CCCN(C)C[C@@H]1CC(F)(F)CN1C1CCN(S(=O)(=O)c2ccccc2F)CC1	712
O=C1COc2cc(S(=O)(=O)N3CCCC3C(=O)NCc3ccc(F)cc3)c(Cl)cc2N1 (stereo unspecified)	745
CCCn1cc(-c2nc(-c3cc(OC)c(OC)c(OC)c3)no2)c(=O)c2ccccc21	798
CCOc1ccc(N(C)C(=O)C2CCN(S(=O)(=O)c3ccc4c(c3)NC(=O)CO4)CC2)cc1	784
Cc1cccc(-c2noc(CCn3nc(-c4ccccc4)ccc3=O)n2)c1	1020
CCOC(=O)c1ccc(Nc2c(-c3cccc(O)c3)nc3cnccn23)cc1	717
O=C(NCCn1nnc2cc(C(=O)N3CCCC3)ccc21)Nc1cccc(Br)c1	722
COc1ccc(-c2nnc(Cc3nc(-c4ccccc4)no3)o2)cc1OC	949
NC(=O)C1CCCN(c2cccc3c2C(=O)c2ccccc2C3=O)C1 (stereo unspecified)	652
COc1ccccc1NC(=O)N1CCN(c2ccc(-c3noc(C)n3)cn2)CC1	724
CCN(CC)C(=O)c1ccc2c(c1)N(CC(=O)NC1CCCCC1)C(=O)CS2	761
O=C(Nc1cccnc1)c1cccc([N+](=O)[O-])c1	661
CCc1cc(-c2csc(S(=O)(=O)NCCCN3CCN(c4ccccc4)CC3)c2)on1	736
CCCN1C(=O)c2cc(S(=O)(=O)NCC(C)C)ccc2Oc2cccnc21	1050
